From US20220127262A1, “CRYSTALLINE FORM OF A CDK INHIBITOR” (Pfizer Inc., priority 2019, published 2022)

Key:
Format in all cases: physicochemical
[1] = Solid-state chemical stability (long term and accelerated storage), total impurities by HPLC
Procedure: The chemical stability of PF-06873600 anhydrous free base (Form 1) was investigated at long term storage conditions (25° C./60% RH) for an extended time period and under accelerated stability conditions (40° C./75% RH) for a shorter period. Stability testing was conducted at 25° C./60% RH for 24 months (long term conditions) and at 40° C./75% RH for 6 months (accelerated conditions) and evaluated for appearance and purity by HPLC.
(§1) Stability samples of drug substance were packaged in double low-density polyethylene (LDPE) bags and desiccant within high-density polyethylene (HDPE) drum. Photostability samples were stored in a quartz Petri dish with a quartz lid.

[2] = Photostability study under ICH conditions, light source option 2; conditions: for Total impurities: ICH photostability
Excerpt: A photostability study was run under ICH conditions using light source option 2 ICH conditions.
as §1

[3] = Water sorption and desorption, automated vapor sorption analyzer
Procedure: Water sorption and desorption studies were conducted on automated vapor sorption analyzer (TA instruments Q5000 SA). The microbalance was calibrated using a 100 mg standard weight. The relative humidity sensor was calibrated at 5.0, 11.3, 32.8, 52.8, 75.3, and 84.3% RH (25° C.) using saturated salt solutions. Approximately 30 mg of the powder sample was placed in the quartz sample holder and dried at ≤3% relative humidity (RH) at 25° C. The attainment of equilibrium was assumed when the weight change of the sample was <0.001 wt % in 5 min or by a maximum equilibration time of 120 minutes. […] The attainment of equilibrium was again assumed when the weight change of the sample was <0.001 wt % in 5 min or by a maximum equilibration time of 120 minutes. The weight gain at each of the % RH steps is based on the weight after the initial drying step. The data were analyzed using Universal Analysis software V4.5A.

## C[C@@]1(O)CCC[C@H]1n1c(=O)c(C(F)F)cc2cnc(NC3CCN(S(C)(=O)=O)CC3)nc21 [PF-06873600 free base (Form 1), 6-(difluoromethyl)-8-[(1R,2R)-2-hydroxy-2-methylcyclopentyl]-2-{[1-(methylsulfonyl)piperidin-4-yl]amino}-pyrido[2,3-d]pyrimidin-7(8H)-one]
[1]; 25° C./60% RH, 3 mos.
  Total impurities: 0.49%
[1]; 25° C./60% RH, 6 mos.
  Total impurities: 0.48%
[1]; 25° C./60% RH, 12 mos.
  Total impurities: 0.51%
[1]; 25° C./60% RH, 24 mos.
  Total impurities: 0.59%
[1]; 25° C./60% RH, Initial
  Total impurities: 0.5%
[1]; 40° C./75% RH, 3 mos.
  Total impurities: 0.47%
[1]; 40° C./75% RH, 6 mos.
  Total impurities: 0.47%
[1]; 40° C./75% RH, Initial
  Total impurities: 0.5%
[2]; light source option 2, 8 days
  Total impurities: 0.64%
[2]; light source option 2, Initial
  Total impurities: 0.58%
[2]; samples directly exposed to UV/Fluorescent conditions
  Appearance after photostability exposure: change in appearance from an off-white powder to a pale-colored powder
[3]; 25° C., 10% RH
  Water Content, Desorption: −0.12 % w/w
  Water Content, Sorption: 0.00 % w/w
[3]; 25° C., 20% RH
  Water Content, Desorption: −0.1 % w/w
  Water Content, Sorption: 0.02 % w/w
[3]; 25° C., 30% RH
  Water Content, Desorption: −0.07 % w/w
  Water Content, Sorption: 0.04 % w/w
[3]; 25° C., 40% RH
  Water Content, Desorption: −0.06 % w/w
  Water Content, Sorption: 0.06 % w/w
[3]; 25° C., 50% RH
  Water Content, Desorption: −0.04 % w/w
  Water Content, Sorption: 0.07 % w/w
[3]; 25° C., 60% RH
  Water Content, Desorption: −0.03 % w/w
  Water Content, Sorption: 0.07 % w/w
[3]; 25° C., 70% RH
  Water Content, Desorption: −0.01 % w/w
  Water Content, Sorption: 0.08 % w/w
[3]; 25° C., 80% RH
  Water Content, Desorption: 0.02 % w/w
  Water Content, Sorption: 0.08 % w/w
[3]; 25° C., 90% RH
  Water Content, Desorption: 0.04 % w/w
  Water Content, Sorption: 0.04 % w/w
[3]; after the water sorption study
  Change in solid form: no change in solid form
[3]; up to 90% RH
  Weight gain: no significant weight gain
[3]; water sorption study, 25° C.
  Hygroscopicity: not hygroscopic
